Laboratory results from patent publication US11384060B2, “Amide compounds and use thereof” (ALPHALA CO., LTD., priority 2017, dated 2022).

Experiments:
[1] = target: T1, glucagon receptor (GCGR) overexpressed CHO-K1 cells or human primary hepatocytes (Homo sapiens, UniProt P47871); assay: Glucagon cAMP inhibition assay (Cisbio cAMP Dynamic 2 HTRF); format: cell-based; details: inhibition of glucagon (EC50 concentration) induced cAMP production
T1 construct: expressed in transfected cells; host or cells: GCGR overexpressed CHO-K1 cells or human primary hepatocytes (endogenous receptor)
Experimental: Glucagon cAMP Inhibition Assay
Downstream secondary messenger cAMP induced by glucagon was detected by Cisbio cAMP Dynamic 2 kit. Testing compounds were each prepared as a dimethyl sulfoxide (DMSO) solution at the concentration of 10 mM. To evaluate the potency of compounds in inhibiting the cAMP production, glucagon receptor (GCGR) overexpressed CHO-K1 cells or human primary hepatocytes were treated with compounds with a serial dilution. The cells were re-suspended in Hank's Balanced Salt solution (HBSS) contained 0.1% (w/v) bovine serum albumin and 800 nM 3-isobutyl-1-methylxanthine (IBMX) and seeded into low volume, 384 wells white plate. The diluted compounds were then added into the plate for 30 minutes pre-incubation where the final DMSO concentration was 1%. The cells were stimulated with glucagon at the concentration equaled to EC50 (an indicium of the concentration of a drug that gives half-maximal response) for 30 minutes at room temperature. After incubation, lysis buffer contain cAMP antibody and fluorescence acceptor were added into each well for additional 60 minutes incubation. Results were recorded by Molecular Devices SpectraMax Paradigm with the HTRF Detection Cartridges and the IC50 value of each compound in inhibiting the cAMP production was calculated with non-linear regression based on the amount of cAMP production.

[2] = target: T2, glucagon receptor (GCGR) (Homo sapiens, UniProt P47871); assay: I125-glucagon binding assay (competition, GCGR membrane fractions); details: competition with I125-glucagon 0.0625 nM, membrane fractions of GCGR overexpressed CHO-K1 cells
T2 construct: expressed in transfected cells; host or cells: CHO-K1 cells overexpressing GCGR (membrane fractions)
Experimental: I^125-Glucagon Binding Assay
The binding affinity of each compound was evaluated by a competition assay with I^125-glucagon. GCGR membrane fractions were obtained from GCGR overexpressed CHO-K1 cells as a stock of 1 mg/ml concentration. To evaluate the IC50 of compounds binding to GCGR, GCGR membrane fractions were treated with compounds with a serial dilution. The membrane fractions were diluted to 7.5 microgram per well in 70 microliter assay buffer contained 50 mM Tris pH 7.4 and 0.5% (w/v) bovine serum albumin and added into 96 wells plate. The membrane fractions were then mixed with 10 microliter diluted compounds. After 5 minutes pre-incubation, 20 microliter I^125 labeled glucagon (Perkin Elmer) was added into each well at the final concentration of 0.0625 nM. The assay mixtures were incubated at 25° C. for 30 minutes and then transferred onto the Millipore MultiScreen GF/B Plate coated with 0.5% (w/v) Polyethyleneimine. The filter plate was washed with wash buffer contained 50 mM Tris pH 7.4 for 2 times, 300 microliter each time. The residual isotope was detected by Hidex CHAMELEON V micro-beta counter and the IC50 value of each compound binding to GCGR was calculated with non-linear regression.

T2 sequence (P47871 26-477): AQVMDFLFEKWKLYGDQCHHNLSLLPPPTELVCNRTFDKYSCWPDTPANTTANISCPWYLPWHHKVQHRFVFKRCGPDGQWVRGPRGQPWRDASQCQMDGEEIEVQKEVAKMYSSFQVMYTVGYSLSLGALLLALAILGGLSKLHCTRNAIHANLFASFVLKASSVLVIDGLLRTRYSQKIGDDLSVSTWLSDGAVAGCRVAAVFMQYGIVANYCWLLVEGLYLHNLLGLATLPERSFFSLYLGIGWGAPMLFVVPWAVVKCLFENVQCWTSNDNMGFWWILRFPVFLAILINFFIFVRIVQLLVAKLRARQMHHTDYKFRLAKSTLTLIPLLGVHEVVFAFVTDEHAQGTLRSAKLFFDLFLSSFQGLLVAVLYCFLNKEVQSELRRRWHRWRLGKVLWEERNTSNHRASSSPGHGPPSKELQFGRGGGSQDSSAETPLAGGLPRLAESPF
T1 sequence (P47871 26-477): as above

Structure (SMILES) | IC50 cAMP [1] [nM] | IC50 [2] [nM]
CC(C)[C@@H](COc1ccc(-c2cc3ccccc3o2)cc1)Nc1ccc(C(=O)NCCC(=O)O)cc1 [Compound 1-2, (S)-3-(4-((1-(4-(benzofuran-2-yl)phenoxy)-3-methylbutan-2-yl)amino)benzamido)propanoic Acid] | 195.6 | 207
CC[C@H](C)[C@@H](COc1ccc(-c2ccc(C(C)(C)C)cc2)cc1)Nc1ccc(C(=O)NCCC(=O)O)cc1 [Compound 1-3, 3-(4-(((2S,3S)-1-((4′-(tert-butyl)-[1,1′-biphenyl]-4-yl)oxy)-3-methylpentan-2-yl)amino)benzamido)propanoic Acid] | 884.4 | 319
CC[C@H](C)[C@@H](COc1ccc(-c2ccc(OC(F)(F)F)cc2)cc1)Nc1ccc(C(=O)NCCC(=O)O)cc1 [Compound 1-6, 3-(4-(((2S,3S)-3-methyl-1-((4′-(trifluoromethoxy)-[1,1′-biphenyl]-4-yl)oxy)pentan-2-yl)amino)benzamido)propanoic Acid] | 1078 | 228
CC[C@H](C)[C@@H](COc1ccc(-c2cc3ccccc3o2)cc1)Nc1ccc(C(=O)NCc2nnn[nH]2)cc1 [Compound 1-8] | 3305 | 98
CCCC[C@@H](COc1ccc(-c2cc3ccccc3o2)cc1)Nc1ccc(C(=O)NCCC(=O)O)cc1 [Compound 1-10, (S)-3-(4-((1-(4-(benzofuran-2-yl)phenoxy)hexan-2-yl)amino)benzamido) propanoic Acid] | 629.8 | 122

Further compounds by falling IC50 [2], results first:

IC50 cAMP [1] [nM] | IC50 [2] [nM] | Structure (SMILES)
3600 | 260 | CC[C@H](C)[C@@H](COc1ccc(-c2cc3ccccc3o2)cc1)Nc1ccc(C(=O)NC[C@@H](O)C(=O)O)cc1 [Compound 1-9, (R)-3-(4-(((2S,3S)-1-(4-(benzofuran-2-yl)phenoxy)-3-methylpentan-2-yl)amino)benzamido)-2-hydroxypropanoic Acid]
414.3 | 224 | CC(C)[C@@H](COc1ccc(-c2ccc(N(C)C)cc2)cc1)Nc1ccc(C(=O)NCCC(=O)O)cc1 [Compound 1-12, (S)-3-(4-((1-((4′-(dimethylamino)-[1,1′-biphenyl]-4-yl)oxy)-3-methylbutan-2-yl)amino)benzamido)propanoic Acid]
839 | 213 | CCC(C)[C@@H](COc1ccc(-c2ccc(C(F)(F)F)cc2)cc1)Nc1ccc(C(=O)NCCC(=O)O)cc1 (stereo partly drawn) [Compound 1-5, 3-(4-(((2S)-3-methyl-1-((4′-(trifluoromethyl)-[1,1′-biphenyl]-4-yl)oxy)pentan-2-yl)amino)benzamido)propanoic Acid]
528 | 184 | CC[C@H](C)[C@@H](COc1ccc(-c2cc3ccccc3o2)cc1)Nc1ccc(C(=O)NCCC(=O)O)cc1 [Compound 1-4, 3-(4-(((2S,3S)-1-(4-(benzofuran-2-yl)phenoxy)-3-methylpentan-2-yl)amino)benzamido)propanoic Acid]
320.3 | 150 | CCCC[C@@H](COc1ccc(-c2ccc(C(C)(C)C)cc2)cc1)Nc1ccc(C(=O)NCCC(=O)O)cc1 [Compound 1-11, (S)-3-(4-((1-((4′-(tert-butyl)-[1,1′-biphenyl]-4-yl)oxy)hexan-2-yl)amino)benzamido)propanoic Acid]
1730 | 141 | CC[C@H](C)[C@@H](COc1ccc(-c2ccc(Cl)cc2Cl)cc1)Nc1ccc(C(=O)NCc2nnn[nH]2)cc1 [Compound 1-13, N-((1H-tetrazol-5-yl)methyl)-4-(((2S,3S)-1-((2′,4′-dichloro-[1,1′-biphenyl]-4-yl)oxy)-3-methylpentan-2-yl)amino)benzamide]
494.8 | 139 | CC[C@H](C)[C@@H](COc1ccc(-c2ccc(Cl)cc2Cl)cc1)Nc1ccc(C(=O)NCCC(=O)O)cc1 [Compound 1-7, 3-(4-(((2S,3S)-1-((2′,4′-dichloro-[1,1′-biphenyl]-4-yl)oxy)-3-methylpentan-2-yl)amino)benzamido)propanoic Acid]
